Results as given in PubChem BioAssay (NCI).
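These data come from cells grown in 96-well plates and exposed to compound for 48 hours at five concentrations. GI50 = concentration required for 50% inhibition of growth. The concentration for full growth arrest is given as TGI.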

What was measured:
Experiment in all cases: NCI anticancer screen, dose series, 48 h
786-0 renal = tested on: 786-0 renal
A498 renal = tested on: A498 renal
A549 NSCLC = tested on: A549 NSCLC
ACHN renal = tested on: ACHN renal
BT-549 breast = tested on: BT-549 breast
CAKI-1 renal = tested on: CAKI-1 renal
CCRF-CEM leukemia = tested on: CCRF-CEM leukemia
COLO 205 colon = tested on: COLO 205 colon
DU-145 prostate = tested on: DU-145 prostate
EKVX NSCLC = tested on: EKVX NSCLC
HCT-116 colon = tested on: HCT-116 colon
HCT-15 colon = tested on: HCT-15 colon
HL-60(TB) leukemia = tested on: HL-60(TB) leukemia
HOP-62 NSCLC = tested on: HOP-62 NSCLC
HOP-92 NSCLC = tested on: HOP-92 NSCLC
HS 578T breast = tested on: HS 578T breast
HT29 colon = tested on: HT29 colon
IGROV1 ovarian = tested on: IGROV1 ovarian
KM12 colon = tested on: KM12 colon
LOX IMVI melanoma = tested on: LOX IMVI melanoma
M14 melanoma = tested on: M14 melanoma
MCF7 breast = tested on: MCF7 breast
MDA-MB-231 breast = tested on: MDA-MB-231 breast
MDA-MB-435 = tested on: MDA-MB-435
MOLT-4 leukemia = tested on: MOLT-4 leukemia
NCI-H226 lung = tested on: NCI-H226 lung
NCI-H23 lung = tested on: NCI-H23 lung
NCI-H460 lung = tested on: NCI-H460 lung
NCI/ADR-RES ovarian = tested on: NCI/ADR-RES ovarian
OVCAR-3 ovarian = tested on: OVCAR-3 ovarian
OVCAR-5 ovarian = tested on: OVCAR-5 ovarian
OVCAR-8 ovarian = tested on: OVCAR-8 ovarian
PC-3 prostate = tested on: PC-3 prostate
RPMI-8226 leukemia = tested on: RPMI-8226 leukemia
SF-268 CNS = tested on: SF-268 CNS
SF-295 CNS = tested on: SF-295 CNS
SF-539 CNS = tested on: SF-539 CNS
SK-MEL-28 melanoma = tested on: SK-MEL-28 melanoma
SK-MEL-5 melanoma = tested on: SK-MEL-5 melanoma
SK-OV-3 ovarian = tested on: SK-OV-3 ovarian
SN12C renal = tested on: SN12C renal
SNB-19 CNS = tested on: SNB-19 CNS
SNB-75 CNS = tested on: SNB-75 CNS
SR leukemia = tested on: SR leukemia
SW-620 colon = tested on: SW-620 colon
T-47D breast = tested on: T-47D breast
U251 CNS = tested on: U251 CNS
UACC-257 melanoma = tested on: UACC-257 melanoma
UO-31 renal = tested on: UO-31 renal
HCC-2998 colon = tested on: HCC-2998 colon
K-562 leukemia = tested on: K-562 leukemia
MALME-3M melanoma = tested on: MALME-3M melanoma
NCI-H522 lung = tested on: NCI-H522 lung
OVCAR-4 ovarian = tested on: OVCAR-4 ovarian
RXF 393 renal = tested on: RXF 393 renal
SK-MEL-2 melanoma = tested on: SK-MEL-2 melanoma
TK-10 renal = tested on: TK-10 renal
UACC-62 melanoma = tested on: UACC-62 melanoma

ClCCN1CCOC1=C1C=CC=C1 gave a TGI (786-0 renal) greater than 100 µM, a TGI (A498 renal) greater than 100 µM and a TGI (A549 NSCLC) greater than 100 µM. It also gave a TGI (ACHN renal) greater than 100 µM, a TGI (BT-549 breast) greater than 100 µM and a TGI (CAKI-1 renal) greater than 100 µM. For the same molecule, the TGI (CCRF-CEM leukemia) was greater than 100 µM, the TGI (COLO 205 colon) was greater than 100 µM and the TGI (DU-145 prostate) was greater than 100 µM. It also gave a TGI (EKVX NSCLC) greater than 100 µM, a TGI (HCT-116 colon) greater than 100 µM and a TGI (HCT-15 colon) greater than 100 µM. It also gave a TGI (HL-60(TB) leukemia) greater than 100 µM, a TGI (HOP-62 NSCLC) greater than 100 µM and a TGI (HOP-92 NSCLC) greater than 100 µM. For the same molecule, the TGI (HS 578T breast) was greater than 100 µM, the TGI (HT29 colon) was greater than 100 µM and the TGI (IGROV1 ovarian) was greater than 100 µM. It also gave a TGI (KM12 colon) greater than 100 µM, a TGI (LOX IMVI melanoma) greater than 100 µM and a TGI (M14 melanoma) greater than 100 µM. The TGI (MCF7 breast) was greater than 100 µM, the TGI (MDA-MB-231 breast) was greater than 100 µM and the TGI (MDA-MB-435) was greater than 100 µM. The TGI (MOLT-4 leukemia) was greater than 100 µM, the TGI (NCI-H226 lung) was greater than 100 µM and the TGI (NCI-H23 lung) was greater than 100 µM. The TGI (NCI-H460 lung) was greater than 100 µM, the TGI (NCI/ADR-RES ovarian) was greater than 100 µM and the TGI (OVCAR-3 ovarian) was greater than 100 µM. It also gave a TGI (OVCAR-5 ovarian) greater than 100 µM, a TGI (OVCAR-8 ovarian) greater than 100 µM and a TGI (PC-3 prostate) greater than 100 µM. For the same molecule, the TGI (RPMI-8226 leukemia) was greater than 100 µM, the TGI (SF-268 CNS) was greater than 100 µM and the TGI (SF-295 CNS) was greater than 100 µM. The TGI (SF-539 CNS) was greater than 100 µM, the TGI (SK-MEL-28 melanoma) was greater than 100 µM and the TGI (SK-MEL-5 melanoma) was greater than 100 µM. It also gave a TGI (SK-OV-3 ovarian) greater than 100 µM, a TGI (SN12C renal) greater than 100 µM and a TGI (SNB-19 CNS) greater than 100 µM. For the same molecule, the TGI (SNB-75 CNS) was greater than 100 µM, the TGI (SR leukemia) was 40.4 µM and the TGI (SW-620 colon) was greater than 100 µM. The TGI (T-47D breast) was greater than 100 µM, the TGI (U251 CNS) was greater than 100 µM and the TGI (UACC-257 melanoma) was greater than 100 µM. The TGI (UO-31 renal) was greater than 100 µM.

Oc1ccc(CCl)c2cccnc12 gave a GI50 (786-0 renal) of 37.7 µM, a TGI (786-0 renal) greater than 100 µM and a GI50 (A498 renal) of 46.5 µM. For the same molecule, the TGI (A498 renal) was greater than 100 µM, the GI50 (A549 NSCLC) was 14.3 µM and the TGI (A549 NSCLC) was greater than 100 µM. For the same molecule, the GI50 (ACHN renal) was 6.88 µM, the TGI (ACHN renal) was greater than 100 µM and the GI50 (BT-549 breast) was 32.4 µM. For the same molecule, the TGI (BT-549 breast) was greater than 100 µM, the GI50 (CAKI-1 renal) was 5.91 µM and the TGI (CAKI-1 renal) was 53.3 µM. The GI50 (CCRF-CEM leukemia) was 4.1 µM, the TGI (CCRF-CEM leukemia) was greater than 100 µM and the GI50 (COLO 205 colon) was 7.05 µM. It also gave a TGI (COLO 205 colon) greater than 100 µM, a GI50 (DU-145 prostate) of 15.7 µM and a TGI (DU-145 prostate) greater than 100 µM. It also gave a GI50 (EKVX NSCLC) of 3.21 µM, a TGI (EKVX NSCLC) of 31.6 µM and a GI50 (HCC-2998 colon) of 33.5 µM. It also gave a TGI (HCC-2998 colon) greater than 100 µM, a GI50 (HCT-116 colon) of 3.29 µM and a TGI (HCT-116 colon) greater than 100 µM. It also gave a GI50 (HCT-15 colon) of 3.8 µM, a TGI (HCT-15 colon) greater than 100 µM and a GI50 (HL-60(TB) leukemia) of 1.36 µM. For the same molecule, the TGI (HL-60(TB) leukemia) was 17.7 µM, the GI50 (HOP-62 NSCLC) was 16 µM and the TGI (HOP-62 NSCLC) was greater than 100 µM. For the same molecule, the GI50 (HOP-92 NSCLC) was 14.5 µM, the TGI (HOP-92 NSCLC) was 90 µM and the GI50 (HS 578T breast) was 6.94 µM. For the same molecule, the TGI (HS 578T breast) was 91.3 µM, the GI50 (HT29 colon) was 9.68 µM and the TGI (HT29 colon) was greater than 100 µM. The GI50 (K-562 leukemia) was 3.39 µM, the TGI (K-562 leukemia) was greater than 100 µM and the GI50 (KM12 colon) was 11.3 µM. For the same molecule, the TGI (KM12 colon) was greater than 100 µM, the GI50 (LOX IMVI melanoma) was 4.9 µM and the TGI (LOX IMVI melanoma) was greater than 100 µM. For the same molecule, the GI50 (M14 melanoma) was 3.2 µM, the TGI (M14 melanoma) was greater than 100 µM and the GI50 (MALME-3M melanoma) was 4.44 µM. For the same molecule, the TGI (MALME-3M melanoma) was 36 µM, the GI50 (MDA-MB-231 breast) was 6.07 µM and the TGI (MDA-MB-231 breast) was greater than 100 µM. The GI50 (MDA-MB-435) was 5.81 µM, the TGI (MDA-MB-435) was 95.3 µM and the GI50 (MOLT-4 leukemia) was 3.96 µM. For the same molecule, the TGI (MOLT-4 leukemia) was greater than 100 µM, the GI50 (NCI-H226 lung) was 34.6 µM and the TGI (NCI-H226 lung) was greater than 100 µM. It also gave a GI50 (NCI-H23 lung) of 6.13 µM, a TGI (NCI-H23 lung) greater than 100 µM and a GI50 (NCI-H460 lung) of 3.95 µM. It also gave a TGI (NCI-H460 lung) of 16 µM, a GI50 (NCI-H522 lung) of 3.62 µM and a TGI (NCI-H522 lung) greater than 100 µM. The GI50 (NCI/ADR-RES ovarian) was 2.98 µM, the TGI (NCI/ADR-RES ovarian) was 28.9 µM and the GI50 (OVCAR-3 ovarian) was 2.08 µM. The TGI (OVCAR-3 ovarian) was 5.5 µM, the GI50 (OVCAR-4 ovarian) was 3.41 µM and the TGI (OVCAR-4 ovarian) was greater than 100 µM. It also gave a GI50 (OVCAR-5 ovarian) of 17.5 µM, a TGI (OVCAR-5 ovarian) greater than 100 µM and a GI50 (OVCAR-8 ovarian) of 4.93 µM. It also gave a TGI (OVCAR-8 ovarian) greater than 100 µM, a GI50 (PC-3 prostate) of 12.3 µM and a TGI (PC-3 prostate) greater than 100 µM. The GI50 (RPMI-8226 leukemia) was 4.25 µM, the TGI (RPMI-8226 leukemia) was greater than 100 µM and the GI50 (RXF 393 renal) was 32.9 µM. It also gave a TGI (RXF 393 renal) greater than 100 µM, a GI50 (SF-268 CNS) of 6.84 µM and a TGI (SF-268 CNS) greater than 100 µM. For the same molecule, the GI50 (SF-295 CNS) was 3.72 µM, the TGI (SF-295 CNS) was 25.8 µM and the GI50 (SF-539 CNS) was 14.5 µM. It also gave a TGI (SF-539 CNS) greater than 100 µM, a GI50 (SK-MEL-2 melanoma) greater than 100 µM and a TGI (SK-MEL-2 melanoma) greater than 100 µM. For the same molecule, the GI50 (SK-MEL-28 melanoma) was 59 µM, the TGI (SK-MEL-28 melanoma) was greater than 100 µM and the GI50 (SK-MEL-5 melanoma) was 12.4 µM. It also gave a TGI (SK-MEL-5 melanoma) of 35.6 µM, a GI50 (SK-OV-3 ovarian) of 43.8 µM and a TGI (SK-OV-3 ovarian) greater than 100 µM. The GI50 (SN12C renal) was 12.5 µM, the TGI (SN12C renal) was greater than 100 µM and the GI50 (SNB-19 CNS) was 22.9 µM. For the same molecule, the TGI (SNB-19 CNS) was greater than 100 µM, the GI50 (SNB-75 CNS) was 44 µM and the TGI (SNB-75 CNS) was greater than 100 µM. For the same molecule, the GI50 (SR leukemia) was 3.43 µM, the TGI (SR leukemia) was 53.6 µM and the GI50 (SW-620 colon) was 4.12 µM. It also gave a TGI (SW-620 colon) greater than 100 µM, a GI50 (T-47D breast) of 3.65 µM and a TGI (T-47D breast) greater than 100 µM. For the same molecule, the GI50 (TK-10 renal) was greater than 100 µM, the TGI (TK-10 renal) was greater than 100 µM and the GI50 (U251 CNS) was 7.7 µM. For the same molecule, the TGI (U251 CNS) was greater than 100 µM, the GI50 (UACC-257 melanoma) was 4.21 µM and the TGI (UACC-257 melanoma) was greater than 100 µM. The GI50 (UACC-62 melanoma) was 8.37 µM, the TGI (UACC-62 melanoma) was greater than 100 µM and the GI50 (UO-31 renal) was 2.9 µM. For the same molecule, the TGI (UO-31 renal) was greater than 100 µM.
